Test results reported in paper PMC6920806, “Synthesis of β-D-galactopyranoside-Presenting Glycoclusters, Investigation of Their Interactions with Pseudomonas aeruginosa Lectin A (PA-IL) and Evaluation of Their Anti-Adhesion Potential” (Biomolecules, 2019).
Entries after “also recorded” stand apart in the source; their conditions may differ.

Columns and labels:
lectin PA-IL = target: T1, lectin PA-IL (Pseudomonas aeruginosa, UniProt Q05097); assay: Analytical ultracentrifugation (sedimentation velocity), cross-linking of lectin; conditions: for level of cross-linking (6.4 S octameric species): 1:0.1 protein to ligand ratio, 22 µM PA-IL; for cross-linking of PA-IL (formation of the 6.4 S particle): protein:ligand ratios 1:0.1, 1:1, 1:10
T1 construct: made in house; host or cells: Escherichia coli BL21(DE3)
T1 sequence (Q05097 2-122): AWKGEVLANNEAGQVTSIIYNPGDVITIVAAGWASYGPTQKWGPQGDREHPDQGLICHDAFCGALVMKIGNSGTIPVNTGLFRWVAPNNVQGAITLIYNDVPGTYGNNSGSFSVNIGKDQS
Protocol: Analytical ultracentrifugation experiments were performed using ProteomeLab XL-I analytical ultracentrifuge (Beckman Coulter, Indianapolis, IN, USA) equipped with an An-60 Ti rotor. Sedimentation velocity experiments were conducted in titanium double-sector centerpiece cells (Nanolytics Instruments, Potsdam, Germany) loaded with 390 µL of both protein sample and reference solution (PBS buffer, pH = 7.5). PA-IL without the added ligand and PA-IL samples pre-incubated with different concentrations of galactosylated dendrimers 4, 7, 10 and 13 and D-galactose (protein:ligand ratios of 1:0.1, 1:1 and 1:10) were analyzed by the sedimentation velocity experiment. All the measurements were performed in PBS buffer with 22 µM PA-IL. Data were collected using absorbance optics at 25 °C at a rotor speed of 48,000 rpm. Scans were collected at 280 nm (or alternatively at 294 nm to decrease the absorbance signal of the samples containing excess of the UV-absorbing ligands 4 and 10) at 5-min intervals and 0.003 cm spatial resolution in continuous scan mode. The partial specific volume of the protein and the solvent density and viscosity were calculated from the amino acid sequence and buffer composition, respectively, using the software Sednterp (http://bitcwiki.sr.unh.edu). The data were analyzed with the continuous c(s) distribution model implemented in the program Sedfit 15.01b. For the regularization procedure, a confidence level of 0.95 was used. The plots of c(s) distributions were created in GUSSI 1.3.1 [28].

[1] = tested on: Pseudomonas aeruginosa CCM 3955 (ATCC 27853) cells; assay: Pseudomonas aeruginosa cross-linking assay with microscope detection; type: cell-based; conditions: for cross-linking of whole P. aeruginosa cells (cell aggregates): concentrations up to 5 mM, 10 min, microscope 100x
Protocol: Pseudomonas aeruginosa CCM 3955 (ATCC 27853) cells were inoculated from stock cells stored at −80 °C into a standard LB medium and were grown at 37 °C overnight under orbital shaking. The bacterial culture was kept in the fridge until further use. Prior to the experiment, bacterial cells were centrifuged at 4300× g (Eppendorf centrifuge MiniSpin, Eppendorf, Germany) for 2 min and subsequently washed three times with PBS buffer (137 mM NaCl, 2.7 mM KCl, 10 mM Na2HPO4, 1.8 mM KH2PO4). Bacterial cells were then diluted in PBS to an optical density OD600 = 1.5, which was checked using a spectrophotometer (WPA CO8000 Biovawe Cell Density Metr, Biochrom Ltd., Cambridge, UK). D-galactopyranoside-presenting inhibitors were diluted in ultrapure water to the concentration of 100 mM. Bacterial cells were mixed in a 9:1 ratio with the 10x concentrated selected compounds and gently mixed. The mixture was incubated at room temperature for 10 min and thoroughly mixed again. An amount of 5 µL of the mixture was transferred onto a microscope slide and observed under 100x magnification using an optical microscope (Olympus IX81F-3/IX81S1F-3, Olympus, Tokyo, Japan). As a negative control, bacterial culture mixed with ultrapure water in 9:1 ratio was used. The images were obtained using a phase contrast method and the background of the images was subtracted in GIMP.

[2] = tested on: adhesion of P. aeruginosa (ST 1763) to epithelial bronchial cells (CuFi-1); assay: Ex vivo bacterial adherence assay: inhibition of P. aeruginosa adhesion to epithelial cells; type: cell-based, Pseudomonas aeruginosa; conditions: for inhibitory effect on bacterial adhesion compared to the control / bacterial adhesion compared to the untreated control: 2 h incubation; for bacterial adhesion compared to the untreated control: highest concentration (2 mM); for concentrations with significant protecting (anti-adhesion) effect: p < 0.05, Dunnett test
Protocol: Epithelial CuFi-1 cells (an immortalized epithelial cell line derived from cystic fibrosis human lungs, ATCC, Kielpin, Poland) were labelled with PKH67 (Fluorescent Cell Linker Kit, Sigma-Aldrich, St. Louis, MO, USA), a green fluorescent membrane marker, as follows. An aliquot of cell suspension containing 7 × 10^6 cells was washed with PBS buffer and centrifuged (100× g for 5 min). The cell pellet was resuspended in 250 µL of Diluent C (Fluorescent Cell Linker Kit, Sigma-Aldrich, St. Louis, MO, USA). Immediately, an equal volume of 8 µM PKH67 in Diluent C (2 µL of PKH67 in 248 µL of Diluent C) was added to the cell suspension. After 5 min incubation at room temperature with periodic mixing, the staining reaction was stopped by adding an equal volume of 1% Fetal Bovine Serum (FBS, Gibco^TM Invitrogen, Paisley, UK) in PBS. After 1 min incubation with FBS, the suspension was centrifuged (100× g for 10 min). Finally, the cells were washed three times with Bronchial Epithelial Cell Growth Basal Medium (Lonza, Basel, Switzerland), followed by centrifugation (100× g for 5 min).
Pseudomonas aeruginosa strain 1763 (University Hospital Motol, Prague, Czech Republic) was stained with PKH26 (Fluorescent Cell Linker Kit, Sigma-Aldrich, St. Louis, MO, USA), a red fluorescent membrane marker. Bacteria were grown in a suspension culture in PS medium (peptone/casein digest) in an Erlenmeyer flask for 14 h. The culture was washed with PBS buffer and centrifuged (13,400× g for 5 min). The pellet containing 1.5 × 10^9 bacteria was resuspended in 125 µL of Diluent C (Fluorescent Cell Linker Kit, Sigma-Aldrich, St. Louis, MO, USA) and an equal volume of 16 µM PKH26 in Diluent C (2 µL of PKH26 in 123 µL of Diluent C) was added to the bacterial suspension. The bacteria/dye suspension was incubated for 30 min at room temperature with periodic mixing. The staining was quenched by adding an equal volume of 1% BSA (Bovine Serum Albumin, Merck, Kenilworth, NJ, USA) in PBS. The suspension was incubated with BSA for 1 min to allow the binding of excess dye and then centrifuged (15,700× g for 10 min). Bacteria were washed two times with PBS, followed by centrifugation (13,400× g for 7.5 and 5 min).
Epithelial cells CuFi-1 stained with PKH67 were seeded at 8.4 × 10^4 cells/well onto 96-well plates (CellBIND® 96-well Flat Clear Bottom Black Polystyrene Microplates, Corning Incorporated, Corning, NY, USA) and incubated for 42–45 h at 37 °C, 5% CO2 to form a confluent monolayer and regenerate. Prior to the assay, wells were washed with PBS. Compounds 4, 7, 10 and 13 were serially diluted with PBS to the desired concentrations. PKH26-stained bacteria P. aeruginosa were added to the diluted inhibitor solutions. Bacterial suspensions were immediately added to the wells (50 µL/well). The input ratio was about 100 bacteria per epithelial cell (8.4 × 10^6 bacteria/well). A suspension without any inhibitor was used as a control. After 2 h incubation at room temperature, the wells were extensively washed three times with PBS to remove non-adhered bacteria. The fluorescence of adhered P. aeruginosa cells (Ex 522 nm, Em 569 nm for PKH26) on epithelial cells (Ex 470 nm, Em 505 for PKH67) was quantified using the spectrofluorometer Tecan Infinite M200 Pro (Tecan Group Ltd., Männedorf, Switzerland). Results were expressed as a relative fluorescence ratio of P. aeruginosa/CuFi-1. Three independent incubations were performed.

SMILES | level of cross-linking (6.4 S octameric species) (lectin PA-IL) | cross-linking of PA-IL (formation of the 6.4 S particle) (lectin PA-IL) | concentration at which aggregates distinguishable from the negative control were still observed [1] [mM] | cross-linking of whole P. aeruginosa cells (cell aggregates) [1] | inhibitory effect on bacterial adhesion compared to the control [2] | lower concentrations resulting in statistically significantly increased fluorescent signal (adhered bacteria) [2] [µM] | bacterial adhesion compared to the untreated control [2] | concentrations with significant protecting (anti-adhesion) effect [2] [mM]
OC[C@H]1O[C@@H](OCc2cn(CCOCCOCCOCCn3cc(COCC(COCc4cn(CCOCCOCCOCCn5cc(CO[C@@H]6O[C@H](CO)[C@H](O)[C@H](O)[C@H]6O)nn5)nn4)(COCc4cn(CCOCCOCCOCCn5cc(CO[C@@H]6O[C@H](CO)[C@H](O)[C@H](O)[C@H]6O)nn5)nn4)COCc4cn(CCOCCOCCOCCn5cc(CO[C@@H]6O[C@H](CO)[C@H](O)[C@H](O)[C@H]6O)nn5)nn4)nn3)nn2)[C@H](O)[C@@H](O)[C@H]1O [Compound 7] | ~ 30% | induced the formation of the 6.4 S particle | 1.25 | highest cross-linking activity; also recorded: Formation of aggregates was observed | no inhibitory effect; also recorded: no visible protective effect | – | – | –
OC[C@H]1O[C@@H](OCc2cn(CCn3cc(COCC(COCc4cn(CCn5cc(CO[C@@H]6O[C@H](CO)[C@H](O)[C@H](O)[C@H]6O)nn5)nn4)(COCc4cn(CCn5cc(CO[C@@H]6O[C@H](CO)[C@H](O)[C@H](O)[C@H]6O)nn5)nn4)COCc4cn(CCn5cc(CO[C@@H]6O[C@H](CO)[C@H](O)[C@H](O)[C@H]6O)nn5)nn4)nn3)nn2)[C@H](O)[C@@H](O)[C@H]1O [Compound 13] | ~ 15% | induced the formation of the 6.4 S particle | – | no aggregates were observed; also recorded: no clearly distinguishable aggregates were detected | – | ≤ 125 | ~42% | ≥ 1
COC(=O)c1cc(OCc2cn(CCOCCOCCOCCn3cc(CO[C@@H]4O[C@H](CO)[C@H](O)[C@H](O)[C@H]4O)nn3)nn2)c(OCc2cn(CCOCCOCCOCCn3cc(CO[C@@H]4O[C@H](CO)[C@H](O)[C@H](O)[C@H]4O)nn3)nn2)c(OCc2cn(CCOCCOCCOCCn3cc(CO[C@@H]4O[C@H](CO)[C@H](O)[C@H](O)[C@H]4O)nn3)nn2)c1 [Compound 4] | – | did not form intermolecular cross-links | – | Formation of aggregates was observed | no inhibitory effect; also recorded: no visible protective effect | – | – | –
COC(=O)c1cc(OCc2cn(CCn3cc(CO[C@@H]4O[C@H](CO)[C@H](O)[C@H](O)[C@H]4O)nn3)nn2)c(OCc2cn(CCn3cc(CO[C@@H]4O[C@H](CO)[C@H](O)[C@H](O)[C@H]4O)nn3)nn2)c(OCc2cn(CCn3cc(CO[C@@H]4O[C@H](CO)[C@H](O)[C@H](O)[C@H]4O)nn3)nn2)c1 [Compound 10] | ~ 15% | induced the formation of the 6.4 S particle | – | Formation of aggregates was observed | – | ≤ 125 | approximately 32% | ≥ 1
